Laboratory results taken from patent publication US5556840A, “2',5'-phosphorothioate oligoadenylates as anitiviral agents” (Temple University - Of The Commonwealth System of Higher …, priority 1994, dated 1996).
“Also recorded” adds a separate entry of the source. Like-named read-outs stand apart in the source and are kept apart here.

How the values were obtained:
[1] = test system: phosphodiesterases; assay: Metabolic stability, general statements; format: in vitro ADME
[2] = test system: SVPD; assay: Hydrolysis by SVPD (snake venom phosphodiesterase); format: in vitro ADME
Description: It is known that the enzyme SVPD preferentially cleaves Rp-3',5'- or 2',5'-phosphorothioate linkages from the 2'/3'-terminus. Nelson et al, J. Org. Chem. 49:2314-2317 (1984); Eppstein et al, J. Biol. Chem. 261:5999-6003 (1986); Lee et al, Biochemistry 24:551-555 (1985). SVPD hydrolysis of the chemically synthesized dimer core ARp A yielded adenosine and AMPS in a molar ratio of 1:1, respectively; the half-life was 3 hours (Table 3).
(§1) The metabolic stability of the 2,5'-phosphorothioate dimer and trimer cores is markedly greater than authentic 2-5A. The rate of hydrolysis of the trimer cores by the 3'-exonuclease SVPD is, in order of decreasing stability: ASp ARp A>ARp ARp A>>>A3. […] The 3'->'5'direction of stepwise cleavage by SVPD is blocked by an Sp configuration, preventing cleavage of the upstream adjacent phosphorothioate linkage. […] With both SVPD and 2'-PDE, the dimer cores (either ARp A or ASp A) accumulate following hydrolysis of the ARp ARp A, ASp ARp A and ARp ASp A trimer cores. Hydrolysis of the 2-5A molecule by SVPD and 2'-PDE proceeds from the 2'/3'-terminus. Therefore, introduction of the phosphorothioate group into the trimer core results in the accumulation of the ARp A or ASp A dimer cores from the 5'-terminus and the accumulation of AMPS from the 2'/3'-terminus (Table 3). With authentic A3, there is no detectable accumulation of A2 following hydrolysis by SVPD or 2'-PDE.

[3] = test system: 2'-phosphodiesterase (2'-PDE), L cell extract; assay: Hydrolysis by 2'-phosphodiesterase in L cell extract; format: in vitro ADME
Excerpt: The four 2,5-phosphorothioate adenylate trimer cores were further characterized by hydrolysis with the enzyme 2'-phosphodiesterase ("2'-PDE"), an exoribonuclease found in L cell extract The enzyme cleaves from the 2'/3'-terminus.
as §1

[4] = test system: tobacco mosaic virus (TMV); assay: TMV replication in intact Nicotiana glutinosa plants (local lesions); format: in vivo; details: 2 × 10^-5 M in infecting solution; 48 hr after infection; half-leaves of N. glutinosa
Description: Carborundum (400 mesh) was sprinkled lightly onto leaves. Solutions containing 0.2 micrograms per ml of TMV and 2×10^-5 M 2',5'-phosphorothioate oligoadenylate in phosphate buffer were applied onto half-leaves of N. glutinosa with either a gloved finger or with a pipettor. The remaining half-leaves were controls (inoculated with the buffer solution containing TMV, but no active compound). The infection was allowed to proceed 48 h under continuous illumination of about 1500 Lx at which time local virus lesions appeared. Inhibition of TMV replication was calculated as the percent of local lesions produced in 2',5'-phosphorothioate oligoadenylate-treated half-leaves compared to control half-leaves.
^4 Inhibition of TMV replication was detected 48 hr after infection
and was calculated as the percent of local lesions produced in treated
halfleaves of N. glutinosa compared to control halfleaves.

[5] = test system: RNase L; assay: Activation or inhibition of RNase L, general statements without assay named; format: biochemical
[6] = test system: serum phosphodiesterases; assay: Hydrolysis by serum phosphodiesterases
[7] = test system: HIV reverse transcriptase; assay: HIV reverse transcriptase activity; format: biochemical, HIV (HTLV-IIIB); details: 200 uM; for Reverse Transcriptase Activity: control 187×10^3 cpm (reactions 1-4), 273×10^3 cpm (reactions 5-13)
Description: HIV reverse transcriptase (RNA-dependent DNA nucleotidyl-transferase) activity was assayed by a modification of the procedure of Poiesz et al. (Poiesz, B. J., Ruscetti , F. W., Gazdar, A. F., Bunn, P. S., Minna, J. D., and Gallo, R. C., Proc. Natl. Acad. Sci. U.S.A. 77: 7415-7419 (1980)).
Cultured H-9 cells are grown at 10^6 cells/ml in RPMI-1640 medium and 20% heat-inactivated fetal calf serum. Cell suspensions are centrifuged (1000×g, 10 min.) and the supernatant is removed. Virus particles are precipitated from this cell-free supernatant to which 0.3 ml of 4M NaCl and 3.6 ml of 30% (weight/volume) polyethylene glycol are added. The suspension is placed on ice for 2 hr following centrifugation at 15,000×g for 30 min at 0° C. The precipitate is resuspended in 200 microliters of 50% glycerol (vol./vol.)/25 mM Tris-HCl (pH 7.5)/5 mM dithiothreitol/50 mM KCl/0.025% Triton X-100. Virus particles are lysed by the addition of 100 microliters of 0.9% Triton X-100/1.5M KCl. Reverse transcriptase assays are performed at 37° C. for 1 hr with 10 microliters of the lysed virus solution in a final reaction volume of 100 microliters containing: 40 mM Tris-HCl (pH 7.8), 4 mM dithiothreitol, 45 mM KCl and 2.5 micrograms of template primer [poly(A)-dT15, 0.5 micrograms/microliter] (with a signal Mg^++ concentration of 10 mM). At this time, 10 microliters of the 2',5'-phosphorothioate oligoadenylate is added to a final concentration of 200 micromolar. Reaction mixtures also contain 4 micromoles of [^3 H]dTTP. Reactions are stopped by the addition of cold 5% trichloroacetic acid and filtered through nitrocellulose discs. The discs are dried and the radioactivity bound to the discs is determined. Reverse transcriptase activity is expressed as the percent relative to a control.
The compounds were assayed in the above manner in two sets, each set having a separate set of controls. The compounds of reactions 1-4 were assayed against control #1, which was 187×10^3 cpm. The compounds used in reactions 5-13 were assayed against control #2, which was 273×10^3 cpm.

[8] = test system: RNase L; assay: rRNA cleavage assay using L929 cell extracts (28S and 18S rRNA); format: biochemical, mouse; details: L929 cell extracts; '>' = no activation at that concentration
Description: Activation of RNase L by 2',5'-phosphorothioate adenylate trimer cores and their 5'-monophosphates was also measured in an rRNA cleavage assay using L929 cell extracts.
The corresponding 5'-monophosphates pARp ARp A, pASp ARp A (at 10^-8 M) and pARp ASp A (at 10^-7 M) activated RNase L to cleave 28S and 18S rRNA.

[9] = test system: RNase L; assay: Core-cellulose assay: activation of partially-purified RNase L to hydrolyze poly(U)-3'-[32P]pCp; format: biochemical, mouse; details: poly(U)-3'-[32P]pCp substrate
Description: FIG. 1B represents the results of a core-cellulose assay indicating the ability of the 2',5'-phosphorothioate adenylate trimer cores and 5'-monophosphates to activate partially-purified RNase L from L929 cell extracts to hydrolyze the substrate polY(U)-3'-[^32 P]pCp. Activation of RNase L was determined by conversion of poly (U )-3'-[^32 P]pCp to acid-soluble fragments. 100% represents 30,000 cpm of labelled poly(U)-3'-[^32 P]pCp bound to glass fiber filters. The curves are labelled in the same manner as FIG. 1A.
The 2',5'-phosphorothioate cores, with one exception, have the correct stereoconfiguration to activate RNase L. The activation of partially-purified RNase L by the 2',5'-phosphorothioates was measured according to the core-cellulose assay of Silverman, Analyt. Biochem. 144:450-460 (1985) which relies on hydrolysis of the substrate poly(U)-3-[^32 P]pCp. […] (FIG. 1B) The order of activation of the trimer cores and the corresponding 5'-monophosphates is: RpRp>SpRp>RpSp (FIG. 1B).

| Substance | metabolic stability (result in words) [1] | hydrolysis by SVPD (result in words) [2] | hydrolysis by SVPD (result in words) ([2]; listed as ARp ASp A) | half life, hydrolysis by L cell extract [3] [days] | Percent TMV Inhibition [4] [%] | effect on RNase L activation (result in words) [5] | hydrolysis by serum phosphodiesterases (result in words) [6] | Percent Inhibition of HIV reverse transcriptase [7] [%] | Reverse Transcriptase Activity [7] | concentration at which RNase L was activated to cleave 28S and 18S rRNA [8] | activation of RNase L, core-cellulose assay (result in words) [9] |
| --- | --- | --- | --- | --- | --- | --- | --- | --- | --- | --- | --- |
| (Rp)-P-Thioadenylyl-(2'-5')-(Sp)-P-thiodenylyl-(2'-5')-adenosine [Compound 10A] | metabolicly stable | not substrates for SVPD; also recorded: not cleaved | not substrates of SVPD | 20 | 70 | activates RNase L | not cleaved | 10 | 247 10^3 cpm | > 10^-4 M | – |
| 5'-O-Phosphoryl-(Rp)-thioadenylyl-(2'-5')-(Rp)-thioadenylyl-(2'-5')-adenosine [pARp ARp A] | metabolically unstable and is readily attacked by phosphodiesterases | – | – | – | 75 | – | – | 25 | 144 10^3 cpm | 10^-8 M | most efficient activator of RNase L |
